Reference: patent US11130750B2, “Calcium channel inhibitors” (Cavion, Inc., priority 2017, dated 2021)

Experiments:
Type in all cases: cell-based
[1] = test system: Human Glioma cancer cell line U251; experiment: Cell Proliferation Assay by CCK-8 Reagent; details: U251 cells, 72 hours incubation, CCK-8, % viability vs vehicle control
Description: Human Glioma cancer cell line U251 was maintained in DMEM (Gibco, Cat #10569-10) supplemented with 10% fetal bovine serum inactivated at 56° C. (Gibco, Cat #10082-147), 100 U/mL penicillin, and 100 μg/mL streptomycin (Gibco, Cat #15140-122) at 37° C. and 1% MEM non-essential amino acid (Sigma, Cat #M7145) in a humid atmosphere containing 5% CO2. The cells were seeded at 2.5×10^3 cells/well in a 96 well plate (BD falcon, Cat #353072) with 200 pt volume/well and kept in 37° C./5% CO2 incubator for 0/N incubation. The seeding density was optimized previously based on growth curve. On the next day, plated cells were incubated with each test compounds at eight different concentrations (100, 50, 25, 12.5, 6.25, 3.125, 1.5 and 0.78) in triplicates. DMSO was used as a Vehicle control and Culture medium was used as blank control for the assay in each plate. The percentage of DMSO was kept uniform across the plate as <1%. The compound treated cells were incubated in 37° C./5% CO2 incubator for 72 hours. After incubation period, […] CCK-8 reagent (Dojindo, Cat #CK04) was added in all the wells and plate was kept in 37° C./5% CO2 incubator for 3 hours. After CCK-8 incubation, absorbance was measured @ 450 nm using Spectrophotometer (BMG, Omega Polar Star). % Viability values at each concentration were calculated with respect to Vehicle control and EC50 values were calculated using graph pad prism software and are shown in Table A.

Cav3.3 = Cav3.3 (Homo sapiens (Human), UniProt Q9P0X4); experiment: Whole-cell voltage clamp recording, HEK293 cells expressing T-type channel Cav3.3; details: holding potential −100 mV, depolarized to −30 mV for 100 ms, room temperature
Description: (§1) Whole-cell voltage clamp recordings were performed on cultured HEK293 cells expressing T-type channels (encoded by Cav3.1, Cav3.2, or Cav3.3 channels). All experiments were performed at room temperature. Whole-cell currents were recorded using a MultiClamp 700B amplifier and analyzed offline with pCLAMP10.4 software (Molecular Devices, LLC, Sunnyvale Calif., USA). […] Test compounds were usually applied via a rapid solution exchange system with 8 fine polyplastic tubings glued in a holder in parallel and located closely to the recorded cells. The current responses were normalized to the control, percent inhibition was calculated and sigmoidal dose-response curettes we're generated using XLFIT (IDBS, Surrey, UK) or Prism (GraphPad Software, LA Jola, Calif., US) to calculate IC50 values and Hill slopes using the following equation Y=Bottom+(Top−Bottom)/1+10{circumflex over (()}(Log EC50−X)−HillsSlope)). IC50 values are given in micromolar units.

Cav3.2 = Cav3.2 (Homo sapiens (Human), UniProt O95180); experiment: Whole-cell voltage clamp recording, HEK293 cells expressing T-type channel Cav3.2; details: holding potential −100 mV, depolarized to −30 mV for 100 ms, room temperature
Cav3.2, sequence (O95180 whole entry): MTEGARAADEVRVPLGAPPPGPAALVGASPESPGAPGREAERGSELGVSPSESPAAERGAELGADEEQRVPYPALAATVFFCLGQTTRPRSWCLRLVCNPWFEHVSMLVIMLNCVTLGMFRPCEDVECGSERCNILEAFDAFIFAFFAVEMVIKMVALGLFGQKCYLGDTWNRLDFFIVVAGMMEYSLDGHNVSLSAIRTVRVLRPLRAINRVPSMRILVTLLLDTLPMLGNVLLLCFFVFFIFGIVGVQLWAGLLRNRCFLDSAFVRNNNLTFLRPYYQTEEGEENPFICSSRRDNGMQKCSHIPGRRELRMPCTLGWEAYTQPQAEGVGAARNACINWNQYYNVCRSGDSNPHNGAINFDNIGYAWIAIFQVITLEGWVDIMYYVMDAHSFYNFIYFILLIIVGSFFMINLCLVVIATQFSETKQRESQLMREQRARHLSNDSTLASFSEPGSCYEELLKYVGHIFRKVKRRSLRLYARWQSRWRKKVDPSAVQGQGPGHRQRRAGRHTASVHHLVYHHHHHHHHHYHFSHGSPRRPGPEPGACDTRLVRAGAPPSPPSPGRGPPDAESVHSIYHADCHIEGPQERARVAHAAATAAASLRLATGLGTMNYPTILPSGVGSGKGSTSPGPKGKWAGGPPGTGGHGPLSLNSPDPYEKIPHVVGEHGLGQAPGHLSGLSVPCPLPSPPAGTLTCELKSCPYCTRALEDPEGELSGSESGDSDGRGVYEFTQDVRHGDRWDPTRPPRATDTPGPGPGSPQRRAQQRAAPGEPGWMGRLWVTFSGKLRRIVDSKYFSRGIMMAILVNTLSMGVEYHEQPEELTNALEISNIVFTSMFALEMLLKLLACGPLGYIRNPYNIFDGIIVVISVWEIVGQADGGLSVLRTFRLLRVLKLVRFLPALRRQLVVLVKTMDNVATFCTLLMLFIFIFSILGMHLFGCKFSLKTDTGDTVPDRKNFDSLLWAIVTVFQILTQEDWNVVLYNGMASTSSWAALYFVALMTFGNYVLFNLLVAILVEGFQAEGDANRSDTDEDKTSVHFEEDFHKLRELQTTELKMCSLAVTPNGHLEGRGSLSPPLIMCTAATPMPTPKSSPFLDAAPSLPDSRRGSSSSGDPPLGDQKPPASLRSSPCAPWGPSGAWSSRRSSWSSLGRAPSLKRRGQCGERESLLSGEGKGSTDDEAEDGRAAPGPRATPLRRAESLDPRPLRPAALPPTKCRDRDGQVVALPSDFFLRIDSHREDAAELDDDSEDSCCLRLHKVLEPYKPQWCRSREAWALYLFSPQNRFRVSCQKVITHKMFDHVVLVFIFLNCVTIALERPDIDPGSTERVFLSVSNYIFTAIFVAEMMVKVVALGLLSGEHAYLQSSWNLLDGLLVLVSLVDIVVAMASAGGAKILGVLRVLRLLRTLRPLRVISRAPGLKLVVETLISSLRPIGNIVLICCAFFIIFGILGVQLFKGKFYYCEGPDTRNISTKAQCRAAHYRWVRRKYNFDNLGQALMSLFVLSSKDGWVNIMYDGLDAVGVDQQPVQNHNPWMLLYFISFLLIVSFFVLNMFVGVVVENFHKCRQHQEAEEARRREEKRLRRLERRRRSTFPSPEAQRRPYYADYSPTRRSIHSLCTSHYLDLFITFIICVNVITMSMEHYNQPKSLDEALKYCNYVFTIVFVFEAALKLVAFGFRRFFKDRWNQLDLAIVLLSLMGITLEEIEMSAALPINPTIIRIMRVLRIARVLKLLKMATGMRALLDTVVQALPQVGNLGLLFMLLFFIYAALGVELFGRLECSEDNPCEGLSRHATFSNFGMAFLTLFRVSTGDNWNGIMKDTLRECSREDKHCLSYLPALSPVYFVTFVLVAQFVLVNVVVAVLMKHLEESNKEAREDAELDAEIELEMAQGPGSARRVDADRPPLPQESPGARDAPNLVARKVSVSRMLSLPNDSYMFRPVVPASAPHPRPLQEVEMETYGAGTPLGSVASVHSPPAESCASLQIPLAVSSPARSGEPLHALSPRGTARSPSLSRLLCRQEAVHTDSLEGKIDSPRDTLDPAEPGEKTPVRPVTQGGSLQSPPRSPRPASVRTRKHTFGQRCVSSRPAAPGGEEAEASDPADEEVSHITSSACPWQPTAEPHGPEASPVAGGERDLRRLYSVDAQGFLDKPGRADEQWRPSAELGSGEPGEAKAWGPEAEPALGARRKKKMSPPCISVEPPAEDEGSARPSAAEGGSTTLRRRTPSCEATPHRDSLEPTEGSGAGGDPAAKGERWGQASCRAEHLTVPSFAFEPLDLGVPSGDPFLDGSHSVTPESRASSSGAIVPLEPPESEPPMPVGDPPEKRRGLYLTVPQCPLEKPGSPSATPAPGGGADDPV
Description: as §1

Cav3.1 = Cav3.1 (Homo sapiens (Human), UniProt O43497); experiment: Whole-cell voltage clamp recording, HEK293 cells expressing T-type channel Cav3.1; details: holding potential −100 mV, depolarized to −30 mV for 100 ms, room temperature
Cav3.1, sequence (O43497 whole entry): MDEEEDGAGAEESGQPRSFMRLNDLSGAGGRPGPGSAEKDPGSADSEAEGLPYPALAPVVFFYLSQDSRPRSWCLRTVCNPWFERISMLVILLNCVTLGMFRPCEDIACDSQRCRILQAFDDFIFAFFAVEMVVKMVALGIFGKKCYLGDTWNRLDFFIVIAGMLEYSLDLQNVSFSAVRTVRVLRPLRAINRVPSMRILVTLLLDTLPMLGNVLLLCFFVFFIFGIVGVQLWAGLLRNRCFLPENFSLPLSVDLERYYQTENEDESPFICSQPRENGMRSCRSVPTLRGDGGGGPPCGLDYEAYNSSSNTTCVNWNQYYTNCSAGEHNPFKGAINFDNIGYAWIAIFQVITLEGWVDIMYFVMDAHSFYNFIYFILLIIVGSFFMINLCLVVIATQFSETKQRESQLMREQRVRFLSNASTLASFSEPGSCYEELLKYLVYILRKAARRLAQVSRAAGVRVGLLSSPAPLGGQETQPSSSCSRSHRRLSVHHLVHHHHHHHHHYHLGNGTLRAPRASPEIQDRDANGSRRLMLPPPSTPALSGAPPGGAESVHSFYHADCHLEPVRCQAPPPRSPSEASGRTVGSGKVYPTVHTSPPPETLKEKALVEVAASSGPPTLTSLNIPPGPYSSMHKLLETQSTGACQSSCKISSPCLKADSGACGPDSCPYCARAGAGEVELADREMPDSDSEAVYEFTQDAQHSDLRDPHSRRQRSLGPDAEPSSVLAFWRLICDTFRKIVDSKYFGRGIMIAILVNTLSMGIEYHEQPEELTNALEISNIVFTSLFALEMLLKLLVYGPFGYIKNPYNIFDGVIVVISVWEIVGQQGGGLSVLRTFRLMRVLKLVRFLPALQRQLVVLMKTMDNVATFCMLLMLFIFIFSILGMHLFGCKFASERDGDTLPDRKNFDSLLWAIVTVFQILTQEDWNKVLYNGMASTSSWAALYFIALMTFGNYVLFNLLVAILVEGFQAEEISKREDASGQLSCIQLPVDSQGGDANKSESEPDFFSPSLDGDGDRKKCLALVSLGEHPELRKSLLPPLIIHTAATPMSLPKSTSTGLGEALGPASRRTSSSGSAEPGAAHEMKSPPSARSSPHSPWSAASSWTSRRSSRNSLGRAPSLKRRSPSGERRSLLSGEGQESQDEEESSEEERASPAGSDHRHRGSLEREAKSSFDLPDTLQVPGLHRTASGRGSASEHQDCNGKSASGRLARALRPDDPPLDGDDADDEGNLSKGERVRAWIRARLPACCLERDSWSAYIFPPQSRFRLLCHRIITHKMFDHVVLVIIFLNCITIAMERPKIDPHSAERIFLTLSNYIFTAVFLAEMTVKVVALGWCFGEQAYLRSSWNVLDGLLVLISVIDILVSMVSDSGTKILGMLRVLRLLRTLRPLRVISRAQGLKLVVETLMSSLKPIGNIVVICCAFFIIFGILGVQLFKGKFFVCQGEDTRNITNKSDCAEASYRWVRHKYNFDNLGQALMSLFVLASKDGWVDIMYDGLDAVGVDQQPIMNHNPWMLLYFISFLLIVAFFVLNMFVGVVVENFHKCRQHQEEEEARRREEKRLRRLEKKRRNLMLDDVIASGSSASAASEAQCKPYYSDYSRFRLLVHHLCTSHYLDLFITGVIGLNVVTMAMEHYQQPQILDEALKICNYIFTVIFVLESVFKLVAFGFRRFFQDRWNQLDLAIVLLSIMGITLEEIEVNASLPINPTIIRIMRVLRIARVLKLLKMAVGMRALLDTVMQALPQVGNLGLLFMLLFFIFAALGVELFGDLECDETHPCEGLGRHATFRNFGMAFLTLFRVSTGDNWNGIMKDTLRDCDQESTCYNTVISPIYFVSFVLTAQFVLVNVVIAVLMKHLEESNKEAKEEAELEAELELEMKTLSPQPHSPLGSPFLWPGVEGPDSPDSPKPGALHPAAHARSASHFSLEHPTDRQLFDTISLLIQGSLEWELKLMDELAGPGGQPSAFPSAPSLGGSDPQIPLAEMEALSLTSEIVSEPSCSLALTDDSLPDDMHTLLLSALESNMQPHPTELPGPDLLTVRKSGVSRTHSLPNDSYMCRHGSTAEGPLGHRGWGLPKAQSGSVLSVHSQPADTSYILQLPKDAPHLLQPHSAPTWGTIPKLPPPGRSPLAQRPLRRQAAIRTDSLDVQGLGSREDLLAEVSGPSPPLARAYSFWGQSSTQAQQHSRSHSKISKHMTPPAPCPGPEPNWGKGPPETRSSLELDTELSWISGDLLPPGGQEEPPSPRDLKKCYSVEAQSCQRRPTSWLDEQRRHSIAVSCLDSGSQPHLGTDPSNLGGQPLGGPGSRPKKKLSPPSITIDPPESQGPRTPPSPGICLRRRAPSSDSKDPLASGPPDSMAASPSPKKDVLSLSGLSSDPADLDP
Description: as §1

| EC50 ([1]; Homo sapiens, U-251, 72 h) | SMILES | further results |
| --- | --- | --- |
| 7.7 µM | COc1ccc(Cl)c2[nH]c(CCCN(C)CC[C@@]3(OC(=O)N(C)C)CCc4cc(F)ccc4[C@@H]3C(C)C)nc12 [Example 7, (1S,2S)-2-(2-((3-(7-Chloro-4-methoxy-1H-benzo[d]imidazol-2-yl)propyl)(methyl)amino)ethyl)-6-fluoro-1-isopropyl-1,2,3,4-tetrahydronaphthalen-2-yl dimethylcarbamate] |  |
| 10 µM | CNC(=O)O[C@]1(CCN(C)CCCc2nc3c(OC)ccc(OC)c3[nH]2)CCc2cc(F)ccc2[C@@H]1C(C)C [Example 5, (1S,2S)-2-(2-((3-(4,7-Dimethoxy-1H-benzo[d]imidazol-2-yl)propyl)(methyl)amino)ethyl)-6-fluoro-1-isopropyl-1,2,3,4-tetrahydronaphthalen-2-yl methylcarbamate] |  |
| 15 µM | COCCNC(=O)O[C@]1(CCN(C)CCCc2nc3c(OC)ccc(OC)c3[nH]2)CCc2cc(F)ccc2[C@@H]1C(C)C [Example 6, (1S,2S)-2-(2-((3-(4,7-Dimethoxy-1H-benzo[d]imidazol-2-yl)propyl)(methyl)amino)ethyl)-6-fluoro-1-isopropyl-1,2,3,4-tetrahydronaphthalen-2-yl (2-methoxyethyl)carbamate] |  |
| 6.8 µM | CC(C)[C@H]1c2ccc(F)cc2CC[C@@]1(CCN(C)CCCc1nc2c(C(F)(F)F)cc(C(F)(F)F)cc2[nH]1)OC(=O)N1CCOCC1 [Example 8, (1S,2S)-2-(2-((3-(4,6-Bis(trifluoromethyl)-1H-benzo[d]imidazol-2-yl)propyl)(methyl)amino)ethyl)-6-fluoro-1-isopropyl-1,2,3,4-tetrahydronaphthalen-2-yl morpholine-4-carboxylate] |  |
| 68 µM | CC(C)[C@H]1c2ccc(F)cc2CC[C@@]1(CCN(C)CCC(C)(C)c1nc2ccccc2[nH]1)OC(=O)N1CCOCC1 [Example 9, (1S,2S)-2-(2-((3-(1H-Benzo[d]imidazol-2-yl)-3-methylbutyl)(methyl)amino)ethyl)-6-fluoro-1-isopropyl-1,2,3,4-tetrahydronaphthalen-2-yl morpholine-4-carboxylate] |  |
| 6 µM | CNC(=O)O[C@]1(CCN(C)CCCc2nc3ccccc3[nH]2)CCc2cc(F)ccc2[C@@H]1C(C)C [Example 1, (1S,2S)-2-(2-((3-(1H-Benzo[d]imidazol-2-yl)propyl)(methyl)amino)ethyl)-6-fluoro-1-isopropyl-1,2,3,4-tetrahydronaphthalen-2-yl methylcarbamate] |  |
| 4.3 µM | Cc1ccc(C)c2[nH]c(CCCN(C)CC[C@]3(OC(=O)N4CCOCC4)CCc4cc(F)ccc4[C@H]3C(C)C)nc12 [Example 17, (1R,2R)-2-(2-((3-(4,7-Dimethyl-1H-benzo[d]imidazol-2-yl)propyl)(methyl)amino)ethyl)-6-fluoro-1-isopropyl-1,2,3,4-tetrahydronaphthalen-2-yl morpholine-4-carboxylate] |  |
| 3.8 µM | CCN(CC)CCNC(=O)O[C@]1(CCN(C)CCC(C)(C)c2nc3ccccc3[nH]2)CCc2cc(F)ccc2[C@@H]1C(C)C [Example 14, (1S,2S)-2-(2-((3-(1H-Benzo[d]imidazol-2-yl)-3-methylbutyl)(methyl)amino)ethyl)-6-fluoro-1-isopropyl-1,2,3,4-tetrahydronaphthalen-2-yl (2-(diethylamino)ethyl)carbamate] |  |
| 4.8 µM | Cc1ccc(C)c2[nH]c(CCCN(C)CC[C@@]3(OC(=O)N4CCOCC4)CCc4cc(F)ccc4[C@@H]3C(C)C)nc12 [Example 15, (1S,2S)-2-(2-((3-(4,7-Dimethyl-1H-benzo[d]imidazol-2-yl)propyl)(methyl)amino)ethyl)-6-fluoro-1-isopropyl-1,2,3,4-tetrahydronaphthalen-2-yl morpholine-4-carboxylate] | IC50 (Cav3.3): 0.212 µM; IC50 (Cav3.2): 0.335 µM; IC50 (Cav3.1): 0.139 µM |
| 2.5 µM | Cc1ccc(C)c2[nH]c(CCCN(C)CC[C@@]3(OC(=O)NCCN(C)C)CCc4cc(F)ccc4[C@@H]3C(C)C)nc12 [Example 4, (1S,2S)-2-(2-((3-(4,7-Dimethyl-1H-benzo[d]imidazol-2-yl)propyl)(methyl)amino)ethyl)-6-fluoro-1-isopropyl-1,2,3,4-tetrahydronaphthalen-2-yl (2-(dimethylamino)ethyl)carbamate] |  |
|  | CNC(=O)OC1(CCN(C)CCCc2nc3ccccc3[nH]2)COc2cc(F)ccc2[C@@H]1C(C)C (single isomer, unassigned) [Example 20A] | EC50 [1]: 54 µM |
| 7 µM | CNC(=O)OC1(CCN(C)CCCc2nc3c(C)ccc(C)c3[nH]2)COc2cc(F)ccc2[C@@H]1C(C)C (stereo partly drawn) [Example 21A, (4S)-3-(2-((3-(4,7-Dimethyl-1H-benzo[d]imidazol-2-yl)propyl)(methyl)amino)ethyl)-7-fluoro-4-isopropylchroman-3-yl methylcarbamate] |  |
